Kd data for 14 molecules are collected here from patent US20250115598A1 (Anaxis Pharma Pty Ltd, priority 2021, published 2025).

Molecules are shown by their SMILES. Some results are limits rather than exact numbers.

The target in one assay is human RIPK3 (Homo sapiens (Human), UniProt Q9Y572). The assay is described as follows: KINOMEscan binding assay, human RIPK3. The conditions noted are these: Table 21. The method, boiled down: (§1)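 KINOMEscan competition binding using kinase-tagged T7 phage or HEK-293-produced DNA-tagged protein captured on ligand beads, with eluted protein quantified by qPCR. Compounds were run as an 11-point 3-fold series, top 30,000 nM, in 1% DMSO. Kd was fitted with the Hill equation, slope fixed at −1.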

In a further assay the target is human MLKL (full length) (Homo sapiens (Human), UniProt Q8NB16). Briefly: KINOMEscan binding assay, human MLKL (full length). Conditions: KINOMEscan, Table 21; read-out: Human MLKL (full-length) (KD). The method, boiled down: as §1
The target of the next assay is human RIPK1 (Homo sapiens (Human), UniProt Q13546). Briefly: KINOMEscan binding assay, human RIPK1. The conditions noted are these: Table 21. The method, boiled down: as §1
human RIPK1, sequence (Q13546 whole entry): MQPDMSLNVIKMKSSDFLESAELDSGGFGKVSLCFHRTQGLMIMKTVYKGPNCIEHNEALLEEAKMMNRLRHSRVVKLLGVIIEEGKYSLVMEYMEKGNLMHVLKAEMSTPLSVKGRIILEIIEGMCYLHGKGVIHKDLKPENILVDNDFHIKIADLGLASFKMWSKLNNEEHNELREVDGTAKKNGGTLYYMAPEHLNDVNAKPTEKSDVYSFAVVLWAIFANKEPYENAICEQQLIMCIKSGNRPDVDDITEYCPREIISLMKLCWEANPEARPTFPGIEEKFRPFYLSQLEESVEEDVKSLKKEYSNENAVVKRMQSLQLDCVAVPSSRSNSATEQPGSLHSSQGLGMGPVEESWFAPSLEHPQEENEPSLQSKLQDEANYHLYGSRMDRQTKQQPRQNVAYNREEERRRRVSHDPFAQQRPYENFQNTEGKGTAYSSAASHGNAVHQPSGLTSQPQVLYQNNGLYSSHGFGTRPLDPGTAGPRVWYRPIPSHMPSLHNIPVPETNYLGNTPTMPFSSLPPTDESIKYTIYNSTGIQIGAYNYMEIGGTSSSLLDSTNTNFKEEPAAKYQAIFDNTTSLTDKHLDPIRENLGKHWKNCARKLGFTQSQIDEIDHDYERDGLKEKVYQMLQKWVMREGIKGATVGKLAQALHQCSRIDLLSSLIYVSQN

human MLKL (full length), sequence (Q8NB16 whole entry): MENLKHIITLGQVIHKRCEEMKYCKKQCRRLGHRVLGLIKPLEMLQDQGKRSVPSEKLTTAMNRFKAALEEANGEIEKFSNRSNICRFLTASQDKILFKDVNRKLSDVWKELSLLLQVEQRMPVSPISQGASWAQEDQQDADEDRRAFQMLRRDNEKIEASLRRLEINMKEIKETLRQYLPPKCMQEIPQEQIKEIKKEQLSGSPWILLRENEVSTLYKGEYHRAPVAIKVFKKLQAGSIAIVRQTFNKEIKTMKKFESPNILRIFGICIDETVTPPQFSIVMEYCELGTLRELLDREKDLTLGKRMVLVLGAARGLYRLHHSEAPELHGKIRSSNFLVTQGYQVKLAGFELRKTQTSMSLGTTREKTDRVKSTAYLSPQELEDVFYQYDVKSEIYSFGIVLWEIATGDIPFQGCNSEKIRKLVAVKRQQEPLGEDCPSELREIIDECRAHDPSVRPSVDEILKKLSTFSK
human RIPK3, sequence (Q9Y572 whole entry): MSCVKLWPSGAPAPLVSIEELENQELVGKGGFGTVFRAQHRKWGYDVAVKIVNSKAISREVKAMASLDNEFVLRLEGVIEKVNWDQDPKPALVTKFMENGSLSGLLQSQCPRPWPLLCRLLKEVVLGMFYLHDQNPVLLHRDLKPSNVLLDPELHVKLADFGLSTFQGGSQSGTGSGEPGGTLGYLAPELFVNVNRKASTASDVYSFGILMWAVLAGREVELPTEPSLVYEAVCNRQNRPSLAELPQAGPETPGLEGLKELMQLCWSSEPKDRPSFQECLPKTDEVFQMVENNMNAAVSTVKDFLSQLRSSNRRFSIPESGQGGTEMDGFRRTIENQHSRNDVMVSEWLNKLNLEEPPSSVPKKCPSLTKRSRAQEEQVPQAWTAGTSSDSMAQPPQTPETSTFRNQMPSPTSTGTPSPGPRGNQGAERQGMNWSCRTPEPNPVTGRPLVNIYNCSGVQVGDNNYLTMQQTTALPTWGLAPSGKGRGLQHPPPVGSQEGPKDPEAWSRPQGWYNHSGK

For the molecule `C[C@H](Oc1cc(-c2nn(C)c3c(-c4cnn(CCN5CC(C)(C)C5)c4)cnc(N)c23)ccc1NS(=O)(=O)C(F)F)c1ccc(F)cc1` [Compound 75, (S)-N-(4-(4-amino-7-(1-(2-(3,3-dimethylazetidin-1-yl)ethyl)-1H-pyrazol-4-yl)-1-methyl-1H-pyrazolo[4,3-c]pyridin-3-yl)-2-(1-(4-fluorophenyl)ethoxy)phenyl)-1,1-difluoromethanesulfonamide], the Kd on human RIPK3 was greater than 10 µM; on human MLKL (full length), less than 0.001 µM; at human RIPK1, greater than 10 µM.
Take `CC(C)N1CC(n2cc(-c3cnc(N)c4c(-c5ccc(NS(=O)(=O)C(F)F)c(O[C@@H](C)c6ccc(F)cc6)c5)nn(C)c34)cn2)C1` [Compound 76, (S)-N-(4-(4-amino-7-(1-(1-isopropylazetidin-3-yl)-1H-pyrazol-4-yl)-1-methyl-1H-pyrazolo[4,3-c]pyridin-3-yl)-2-(1-(4-fluorophenyl)ethoxy)phenyl)-1,1-difluoromethanesulfonamide]: the Kd on human RIPK3 was greater than 10 µM; at human MLKL (full length), less than 0.001 µM; at human RIPK1 it was greater than 10 µM.
Regarding `C[C@H](Oc1cc(-c2nn(C)c3c(-c4cnn(C5CN(CC(F)(F)F)C5)c4)cnc(N)c23)ccc1NS(=O)(=O)C(F)F)c1ccc(F)cc1` [Compound 77, (S)-N-(4-(4-amino-1-methyl-7-(1-(1-(2,2,2-trifluoroethyl)azetidin-3-yl)-1H-pyrazol-4-yl)-1H-pyrazolo[4,3-c]pyridin-3-yl)-2-(1-(4-fluorophenyl)ethoxy)phenyl)-1,1-difluoromethanesulfonamide], the values for the Kd at human RIPK3, on human MLKL (full length) and on human RIPK1 were greater than 10 µM, less than 0.001 µM and greater than 10 µM, respectively.
`C[C@H](Oc1cc(-c2nn(C)c3c(-c4cnn(C5CC6(CNC6)C5)c4)cnc(N)c23)ccc1NS(=O)(=O)C(F)F)c1ccc(F)cc1` [Compound 78, (S)-N-(4-(7-(1-(2-azaspiro[3.3]heptan-6-yl)-1H-pyrazol-4-yl)-4-amino-1-methyl-1H-pyrazolo[4,3-c]pyridin-3-yl)-2-(1-(4-fluorophenyl)ethoxy)phenyl)-1,1-difluoromethane-sulfonamide]: the Kd is greater than 10 µM at human RIPK3, less than 0.001 µM on human MLKL (full length) and greater than 10 µM on human RIPK1.
Turning to `C[C@H](Oc1cc(-c2nn(C)c3c(C#CC4CCNCC4)cnc(N)c23)ccc1NS(=O)(=O)C(F)F)c1ccc(F)cc1` [Compound 79, (S)—N-(4-(4-amino-1-methyl-7-(piperidin-4-ylethynyl)-1H-pyrazolo[4,3-c]pyridin-3-yl)-2-(1-(4-fluorophenyl)ethoxy)phenyl)-1,1-difluoromethanesulfonamide], the Kd at human RIPK3 is greater than 10 µM; at human MLKL (full length), less than 0.001 µM; at human RIPK1, greater than 10 µM.
As for `CC(C)N(C)C(=O)C(C)n1cc(-c2cnc(N)c3c(-c4ccc(NS(=O)(=O)C(F)F)c(O[C@@H](C)c5ccc(F)cc5)c4)nn(C)c23)cn1` (stereo partly drawn) [Compound 81, 2-(4-(4-amino-3-(4-((difluoromethyl)sulfonamido)-3-((S)-1-(4-fluorophenyl)ethoxy)phenyl)-1-methyl-1H-pyrazolo[4,3-c]pyridin-7-yl)-1H-pyrazol-1-yl)-N-isopropyl-N-methylpropanamide], the values for the Kd at human RIPK3, on human MLKL (full length) and at human RIPK1 were greater than 10 µM, less than 0.001 µM and greater than 10 µM, respectively.
For the molecule `CNCCn1cc(-c2cnc(N)c3c(-c4ccc(NS(=O)(=O)C(F)F)c(O[C@@H](C)c5ccc(F)cc5)c4)nn(C)c23)cn1` [Compound 82, (S)-N-(4-(4-amino-1-methyl-7-(1-(2-(methylamino)ethyl)-1H-pyrazol-4-yl)-1H-pyrazolo[4,3-c]pyridin-3-yl)-2-(1-(4-fluorophenyl)ethoxy)phenyl)-1,1-difluoromethanesulfonamide], the figures for the Kd on human RIPK3, on human MLKL (full length) and on human RIPK1 were greater than 10 µM, less than 0.001 µM and greater than 10 µM, respectively.
As to `C[C@H](Oc1cc(-c2nn(C)c3c(-c4cnn(C5(CN)CC5)c4)cnc(N)c23)ccc1NS(=O)(=O)C(F)F)c1ccc(F)cc1` [Compound 89, (S)—N-(4-(4-amino-7-(1-(1-(aminomethyl)cyclopropyl)-1H-pyrazol-4-yl)-1-methyl-1H-pyrazolo[4,3-c]pyridin-3-yl)-2-(1-(4-fluorophenyl)ethoxy)phenyl)-1,1-difluoromethanesulfonamide], the figures for the Kd on human RIPK3, at human MLKL (full length) and on human RIPK1 were greater than 10 µM, less than 0.001 µM and greater than 10 µM, respectively.
Regarding `C[C@H](Oc1cc(-c2nn(C)c3c(-c4cnn(C5CN(C)C5)c4)cnc(N)c23)ccc1NS(=O)(=O)C(F)F)c1ccc(F)cc1` [Compound 92, (S)-N-(4-(4-amino-1-methyl-7-(1-(1-methylazetidin-3-yl)-1H-pyrazol-4-yl)-1H-pyrazolo[4,3-c]pyridin-3-yl)-2-(1-(4-fluorophenyl)ethoxy)phenyl)-1,1-difluoromethanesulfonamide], the Kd on human RIPK3 was greater than 10 µM; at human MLKL (full length), less than 0.001 µM; on human RIPK1 it was greater than 10 µM.
`C[C@H](Oc1cc(-c2nn(C)c3c(-c4cnn(C5CCN(C)C5)c4)cnc(N)c23)ccc1NS(=O)(=O)C(F)F)c1ccc(F)cc1` (stereo partly drawn) [Compound 93, N-(4-(4-amino-1-methyl-7-(1-(1-methylpyrrolidin-3-yl)-1H-pyrazol-4-yl)-1H-pyrazolo[4,3-c]pyridin-3-yl)-2-((S)-1-(4-fluorophenyl)ethoxy)phenyl)-1,1-difluoromethanesulfonamide]: the Kd on human RIPK3 is greater than 10 µM; at human MLKL (full length), less than 0.001 µM; at human RIPK1, greater than 10 µM.
Take `C[C@H](Oc1cc(-c2nn(C)c3c(-c4cnn(C5CNC5)c4)cnc(N)c23)ccc1NS(=O)(=O)C(F)F)c1ccc(F)cc1` [Compound 94, (S)-N-(4-(4-amino-7-(1-(azetidin-3-yl)-1H-pyrazol-4-yl)-1-methyl-1H-pyrazolo[4,3-c]pyridin-3-yl)-2-(1-(4-fluorophenyl)ethoxy)phenyl)-1,1-difluoromethane-sulfonamide]: the results for the Kd on human RIPK3, at human MLKL (full length) and at human RIPK1 were greater than 10 µM, less than 0.001 µM and greater than 10 µM, respectively.
As to `C[C@H](Oc1cc(-c2nn(C)c3c(-c4cnn(C5(C#N)CC5)c4)cnc(N)c23)ccc1NS(=O)(=O)C(F)F)c1ccc(F)cc1` [Compound 96, N-(4-{4-amino-7-[1-(1-cyanocyclopropyl)-1H-pyrazol-4-yl]-1-methyl-1H-pyrazolo[4,3-c]pyridin-3-yl}-2-[(1S)-1-(4-fluorophenyl)ethoxy]phenyl)-1,1-difluoromethanesulfonamide], the Kd at human RIPK3 was greater than 10 µM; at human MLKL (full length), less than 0.001 µM; at human RIPK1, greater than 10 µM.
In the case of `C[C@H](Oc1cc(-c2nn(C)c3c(-c4cnn(C(C)(C)CO)c4)cnc(N)c23)ccc1NS(=O)(=O)C(F)F)c1ccc(F)cc1` [Compound 97, (S)-N-(4-(4-amino-7-(1-(1-hydroxy-2-methylpropan-2-yl)-1H-pyrazol-4-yl)-1-methyl-1H-pyrazolo[4,3-c]pyridin-3-yl)-2-(1-(4-fluorophenyl)ethoxy)phenyl)-1,1-difluoromethanesulfonamide], the Kd at human RIPK3 was greater than 10 µM; at human MLKL (full length), less than 0.001 µM; on human RIPK1, greater than 10 µM.
For `C[C@H](Oc1cc(-c2nn(C)c3c(-c4cnn(C5(CC#N)COC5)c4)cnc(N)c23)ccc1NS(=O)(=O)C(F)F)c1ccc(F)cc1` [Compound 98, (S)-N-(4-(4-amino-7-(1-(3-(cyanomethyl)oxetan-3-yl)-1H-pyrazol-4-yl)-1-methyl-1H-pyrazolo[4,3-c]pyridin-3-yl)-2-(1-(4-fluorophenyl)ethoxy)phenyl)-1,1-difluoromethanesulfonamide], the Kd at human RIPK3 was greater than 10 µM; on human MLKL (full length), less than 0.001 µM; at human RIPK1, greater than 10 µM.
